# Experimental data taken from ChEMBL document CHEMBL3045400, “Synthesis of novel triazole derivatives as potent inhibitor of allene oxide synthase (CYP74A), a key enzyme in jasmonic acid biosynthesis” (J Pestic Sci, 2012).
# Biological target: T1, Allene oxide synthase, chloroplastic (Arabidopsis thaliana, UniProt Q96242)
# T1 sequence (Q96242 whole entry): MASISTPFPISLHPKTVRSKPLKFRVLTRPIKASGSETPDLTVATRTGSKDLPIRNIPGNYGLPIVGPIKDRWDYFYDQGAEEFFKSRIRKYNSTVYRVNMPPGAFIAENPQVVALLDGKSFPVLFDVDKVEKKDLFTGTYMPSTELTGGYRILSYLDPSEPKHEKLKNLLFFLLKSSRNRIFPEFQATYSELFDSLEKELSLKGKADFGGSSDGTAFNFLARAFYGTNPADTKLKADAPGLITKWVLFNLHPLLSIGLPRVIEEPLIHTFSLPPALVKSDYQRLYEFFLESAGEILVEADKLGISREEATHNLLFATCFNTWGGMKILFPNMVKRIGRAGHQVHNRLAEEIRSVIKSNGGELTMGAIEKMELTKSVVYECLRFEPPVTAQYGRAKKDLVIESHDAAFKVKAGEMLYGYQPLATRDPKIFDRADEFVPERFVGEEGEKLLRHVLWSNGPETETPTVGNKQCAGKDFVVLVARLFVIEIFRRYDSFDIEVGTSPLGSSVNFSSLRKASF
# Test: Inhibition of recombinant Arabidopsis thaliana allene oxide synthase activity by spectrophotometry
row,Compound,IC50 [nM]
1,COC(=O)CCCCCCCOC(Cn1cncn1)c1ccc(OC)cc1 (stereo unspecified),2600
2,COC(=O)CCCCCCCOC(Cn1cncn1)c1ccccc1 (stereo unspecified),1600
3,COC(=O)CCCCCCCOC(Cn1cncn1)c1ccc(Cl)cc1 (stereo unspecified),1200
4,COC(=O)CCCCCCCOC(Cn1cncn1)c1ccc(-c2ccccc2)cc1 (stereo unspecified),54300
5,COC(=O)CCCCCCCOC(Cn1cncn1)c1ccc2ccccc2c1 (stereo unspecified),750
6,COC(=O)CCCCCCCOC(Cn1cncn1)c1cccc(OC)c1 (stereo unspecified),22500
7,COC(=O)CCCCCCCOC(Cn1ccnc1)c1ccc(Cl)cc1Cl (stereo unspecified),850
8,COC(=O)CCCCCCCOC(Cn1cncn1)c1ccc(Cl)cc1Cl (stereo unspecified),840
9,COC(=O)CCCCCCCOC(Cn1cncn1)c1ccc(Cl)c(Cl)c1 (stereo unspecified),930
10,COC(=O)CCCCCCCOC(Cn1cncn1)c1ccc(F)cc1 (stereo unspecified),14500
11,CCCCCCCOC(=O)CCCCCCCOC(Cn1ccnc1)c1ccc(Cl)cc1Cl (stereo unspecified),10
